The target of experiment [1] is DNA-dependent protein kinase catalytic subunit (Homo sapiens) (UniProt P78527). Kind of experiment: Inhibition of human DNA-PK assessed as residual activity at 10 uM using GST-cMyc-p53 as substrate measured after 40 mins by fluorescence assay relative to control.
In experiment [2] the test system is Proto-oncogene tyrosine-protein kinase Src (Homo sapiens), P12931 [T341M]. Briefly: Inhibition of recombinant full length human SRC T341M mutant assessed as residual activity at 10 uM using GGEEEEYFELVKK as substrate incubated for 40 mins in presence of [gamma33P]ATP by scintillation counting based radiometry assay relative to control.
Experiment [3] has as its target Citron Rho-interacting kinase (Homo sapiens) (UniProt O14578). Briefly: Inhibition of recombinant human CRIK assessed as residual activity at 10 uM KKLRRTLSVA as substrate incubated 120 mins in presence of [gamma-33ATP] by scintillation counting based radiometry assay relative to control.
The subject of experiment [4] is Discoidin domain-containing receptor 2 (Homo sapiens), Q16832 [UNDEFINED MUTATION]. Kind of experiment: Inhibition of recombinant human DDR2 S642A mutant (467 to end residues) assessed as residual activity at 10 uM using KKSRGDYMTMQIG as substrate at 40 mins in presence of [gamma-33ATP] by scintillation counting based radiometry assay relative to control.
Experiment [5] addresses Serine/threonine-protein kinase MRCK alpha (Homo sapiens) (UniProt Q5VT25). Kind of experiment: Inhibition of recombinant human MRCKalpha (1 to 473 residues) assessed as residual activity at 10 uM using KKRNRTLTV as substrate incubated for 40 mins in presence of [gamma-33ATP by scintillation counting based radiometry assay relative to control.
Experiment [6] concerns the target Phosphatidylinositol 4-phosphate 3-kinase C2 domain-containing subunit alpha (Homo sapiens) (UniProt O00443). Kind of experiment: Inhibition of recombinant human PI3KC2alpha (299 to end residues) assessed as residual activity at 10 uM using phosphatidylinositol as substrate incubated for 40 mins in presence of [gamma33P]ATP by scintillation counting based radiometry assay relative to control.

Experiment [7] is filed under the species Homo sapiens. Kind of experiment: Inhibition of recombinant human MAPKAPK2 A399G mutant (46 to end residues) assessed as residual activity at 10 uM using KKLNRTLSVA as substrate incubated for 40 mins in presence of [gamma-33ATP by scintillation counting based radiometry assay relative to control.
Experiment [8] addresses Serine/threonine-protein kinase 38-like (Homo sapiens) (UniProt Q9Y2H1). Kind of experiment: Inhibition of recombinant human NDR2 (83 to end residues) assessed as residual activity at 10 uM using RSRSRSRSRSRSRSR as substrate measured after 40 mins in presence of [gamma33P]ATP by scintillation counting based radiometry assay relative to control.
Experiment [9] deals with Mitogen-activated protein kinase kinase kinase 5 (Homo sapiens) (UniProt Q99683). Kind of experiment: Inhibition of recombinant human ASK1 (649 to 946 residues) assessed as residual activity at 10 uM using myelin basic protein as substrate incubated for 40 mins in presence of [gamma-33ATP] by scintillation counting based radiometry assay relative to control.
For experiment [10], the species on record is Mus musculus. Kind of experiment: Inhibition of recombinant full-length mouse PI3K p110/p85 H1047R mutant assessed as residual activity at 10 uM using phosphatidylinositol-4, 5-bisphosphate as substrate incubated for 40 mins in presence of [gamma33P]ATP by scintillation counting based radiometry assay relative to control.
Experiment [11] concerns RAC-beta serine/threonine-protein kinase (Homo sapiens), P31751 [S474D]. Kind of experiment: Inhibition of recombinant human PKBbeta S474D mutant (120 to end residues) assessed as residual activity at 10 uM using GRPRTSSFAEGKK as substrate incubated for 40 mins in presence of [gamma33P]ATP by scintillation counting based radiometry assay relative to control.
Experiment [12] has as its target Serine/threonine-protein kinase Sgk3 (Homo sapiens) (UniProt Q96BR1). Briefly: Inhibition of recombinant human SGK3 (119 to end residues) assessed as residual activity at 10 uM using GRPRTSSFAEGKK as substrate incubated for 40 mins in presence of [gamma33P]ATP by scintillation counting based radiometry assay relative to control.
In experiment [13] the target is Serine/threonine-protein kinase PRP4 homolog (Homo sapiens) (UniProt Q13523). Kind of experiment: Inhibition of recombinant human PRP4 (663 to end residues) assessed as residual activity at 10 uM using casein as substrate incubated for 40 mins in presence of [gamma33P]ATP by scintillation counting based radiometry assay relative to control.
Experiment [14] has as its target Interleukin-1 receptor-associated kinase 1 (Homo sapiens) (UniProt P51617). Briefly: Inhibition of human IRAK1 (194 to end residues) assessed as residual activity at 10 uM using myelin basic protein as substrate after 40 mins by [gamma-33ATP] radiometric assay relative to control.
Experiment [15] deals with Calcium/calmodulin-dependent protein kinase kinase 2 (Homo sapiens), Q96RR4 [T85S]. Briefly: Inhibition of recombinant full length human CaMKK2 T85S mutant assessed as residual activity at 10 uM using […] incubated for 40 mins in presence of [gamma-33ATP] by scintillation counting based radiometry assay relative to control.
For experiment [16], the target named is Dual specificity mitogen-activated protein kinase kinase 1 (Homo sapiens) (UniProt Q02750). Briefly: Inhibition of recombinant human MEK1 assessed as residual activity at 10 uM using inactive MAPK2 as substrate incubated for 40 mins in presence of [gamma-33ATP by scintillation counting based radiometry assay relative to control.
The test system of experiment [17] is Macrophage colony-stimulating factor 1 receptor (Homo sapiens), P07333 [Y969C]. Kind of experiment: Inhibition of recombinant human FMS Y969C mutant (538 to end residues) assessed as residual activity at 10 uM using EEEEYEEEEEEYYIIEEEEEEYEEEEEEYYEEEEEEKKKK as substrate at 40 mins in presence of [gamma-33ATP] by scintillation counting based radiometry assay relative to control.

Experiment [18] concerns Serine/threonine-protein kinase N1 (Homo sapiens), Q16512 [V901I]. Kind of experiment: Inhibition of recombinant human PRK1 V901I mutant (498 to end residues) assessed as residual activity at 10 uM using KKLNRTLSFAEPG as substrate incubated for 40 mins in presence of [gamma33P]ATP by scintillation counting based radiometry assay relative to control.
In experiment [19] the target is Maternal embryonic leucine zipper kinase (Homo sapiens) (UniProt Q14680). Briefly: Inhibition of recombinant human MELK (1 to 340 residues) assessed as residual activity at 10 uM using KKLNRTLSFAEPG as substrate incubated for 40 mins in presence of [gamma-33ATP by scintillation counting based radiometry assay relative to control.
Experiment [20] addresses Homeodomain-interacting protein kinase 3 (Homo sapiens) (UniProt Q9H422). Kind of experiment: Inhibition of human HIPK3 (161 to 562 residues) assessed as residual activity at 10 uM using myelin basic protein as substrate after 40 mins by [gamma-33ATP] radiometric assay relative to control.
In experiment [21] the target is CDK9/cyclin T1 (Homo sapiens) (UniProt O60563+P50750). Kind of experiment: Inhibition of recombinant full length human CDK9/cyclinT1 assessed as residual activity at 10 uM using KTFCGTPEYLAPE as substrate incubated for 40 mins in presence of [gamma-33ATP] by scintillation counting based radiometry assay relative to control. It counts as protein-complex assay.

Chain of Serine/threonine-protein kinase Sgk3 (Homo sapiens) (Q96BR1 whole entry): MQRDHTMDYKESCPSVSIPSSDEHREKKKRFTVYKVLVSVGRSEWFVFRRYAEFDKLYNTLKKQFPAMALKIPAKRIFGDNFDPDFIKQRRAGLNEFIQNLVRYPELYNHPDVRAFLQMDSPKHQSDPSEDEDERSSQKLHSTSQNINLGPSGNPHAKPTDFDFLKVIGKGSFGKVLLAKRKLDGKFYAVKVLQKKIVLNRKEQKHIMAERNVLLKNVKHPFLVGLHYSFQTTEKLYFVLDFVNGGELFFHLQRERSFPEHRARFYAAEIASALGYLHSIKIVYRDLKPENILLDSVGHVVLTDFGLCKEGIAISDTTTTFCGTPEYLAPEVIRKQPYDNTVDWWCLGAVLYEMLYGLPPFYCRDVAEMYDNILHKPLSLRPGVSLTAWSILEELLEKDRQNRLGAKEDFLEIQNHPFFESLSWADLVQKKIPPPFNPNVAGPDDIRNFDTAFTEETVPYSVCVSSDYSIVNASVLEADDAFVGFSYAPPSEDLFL
Chain of DNA-dependent protein kinase catalytic subunit (Homo sapiens) (P78527 whole entry): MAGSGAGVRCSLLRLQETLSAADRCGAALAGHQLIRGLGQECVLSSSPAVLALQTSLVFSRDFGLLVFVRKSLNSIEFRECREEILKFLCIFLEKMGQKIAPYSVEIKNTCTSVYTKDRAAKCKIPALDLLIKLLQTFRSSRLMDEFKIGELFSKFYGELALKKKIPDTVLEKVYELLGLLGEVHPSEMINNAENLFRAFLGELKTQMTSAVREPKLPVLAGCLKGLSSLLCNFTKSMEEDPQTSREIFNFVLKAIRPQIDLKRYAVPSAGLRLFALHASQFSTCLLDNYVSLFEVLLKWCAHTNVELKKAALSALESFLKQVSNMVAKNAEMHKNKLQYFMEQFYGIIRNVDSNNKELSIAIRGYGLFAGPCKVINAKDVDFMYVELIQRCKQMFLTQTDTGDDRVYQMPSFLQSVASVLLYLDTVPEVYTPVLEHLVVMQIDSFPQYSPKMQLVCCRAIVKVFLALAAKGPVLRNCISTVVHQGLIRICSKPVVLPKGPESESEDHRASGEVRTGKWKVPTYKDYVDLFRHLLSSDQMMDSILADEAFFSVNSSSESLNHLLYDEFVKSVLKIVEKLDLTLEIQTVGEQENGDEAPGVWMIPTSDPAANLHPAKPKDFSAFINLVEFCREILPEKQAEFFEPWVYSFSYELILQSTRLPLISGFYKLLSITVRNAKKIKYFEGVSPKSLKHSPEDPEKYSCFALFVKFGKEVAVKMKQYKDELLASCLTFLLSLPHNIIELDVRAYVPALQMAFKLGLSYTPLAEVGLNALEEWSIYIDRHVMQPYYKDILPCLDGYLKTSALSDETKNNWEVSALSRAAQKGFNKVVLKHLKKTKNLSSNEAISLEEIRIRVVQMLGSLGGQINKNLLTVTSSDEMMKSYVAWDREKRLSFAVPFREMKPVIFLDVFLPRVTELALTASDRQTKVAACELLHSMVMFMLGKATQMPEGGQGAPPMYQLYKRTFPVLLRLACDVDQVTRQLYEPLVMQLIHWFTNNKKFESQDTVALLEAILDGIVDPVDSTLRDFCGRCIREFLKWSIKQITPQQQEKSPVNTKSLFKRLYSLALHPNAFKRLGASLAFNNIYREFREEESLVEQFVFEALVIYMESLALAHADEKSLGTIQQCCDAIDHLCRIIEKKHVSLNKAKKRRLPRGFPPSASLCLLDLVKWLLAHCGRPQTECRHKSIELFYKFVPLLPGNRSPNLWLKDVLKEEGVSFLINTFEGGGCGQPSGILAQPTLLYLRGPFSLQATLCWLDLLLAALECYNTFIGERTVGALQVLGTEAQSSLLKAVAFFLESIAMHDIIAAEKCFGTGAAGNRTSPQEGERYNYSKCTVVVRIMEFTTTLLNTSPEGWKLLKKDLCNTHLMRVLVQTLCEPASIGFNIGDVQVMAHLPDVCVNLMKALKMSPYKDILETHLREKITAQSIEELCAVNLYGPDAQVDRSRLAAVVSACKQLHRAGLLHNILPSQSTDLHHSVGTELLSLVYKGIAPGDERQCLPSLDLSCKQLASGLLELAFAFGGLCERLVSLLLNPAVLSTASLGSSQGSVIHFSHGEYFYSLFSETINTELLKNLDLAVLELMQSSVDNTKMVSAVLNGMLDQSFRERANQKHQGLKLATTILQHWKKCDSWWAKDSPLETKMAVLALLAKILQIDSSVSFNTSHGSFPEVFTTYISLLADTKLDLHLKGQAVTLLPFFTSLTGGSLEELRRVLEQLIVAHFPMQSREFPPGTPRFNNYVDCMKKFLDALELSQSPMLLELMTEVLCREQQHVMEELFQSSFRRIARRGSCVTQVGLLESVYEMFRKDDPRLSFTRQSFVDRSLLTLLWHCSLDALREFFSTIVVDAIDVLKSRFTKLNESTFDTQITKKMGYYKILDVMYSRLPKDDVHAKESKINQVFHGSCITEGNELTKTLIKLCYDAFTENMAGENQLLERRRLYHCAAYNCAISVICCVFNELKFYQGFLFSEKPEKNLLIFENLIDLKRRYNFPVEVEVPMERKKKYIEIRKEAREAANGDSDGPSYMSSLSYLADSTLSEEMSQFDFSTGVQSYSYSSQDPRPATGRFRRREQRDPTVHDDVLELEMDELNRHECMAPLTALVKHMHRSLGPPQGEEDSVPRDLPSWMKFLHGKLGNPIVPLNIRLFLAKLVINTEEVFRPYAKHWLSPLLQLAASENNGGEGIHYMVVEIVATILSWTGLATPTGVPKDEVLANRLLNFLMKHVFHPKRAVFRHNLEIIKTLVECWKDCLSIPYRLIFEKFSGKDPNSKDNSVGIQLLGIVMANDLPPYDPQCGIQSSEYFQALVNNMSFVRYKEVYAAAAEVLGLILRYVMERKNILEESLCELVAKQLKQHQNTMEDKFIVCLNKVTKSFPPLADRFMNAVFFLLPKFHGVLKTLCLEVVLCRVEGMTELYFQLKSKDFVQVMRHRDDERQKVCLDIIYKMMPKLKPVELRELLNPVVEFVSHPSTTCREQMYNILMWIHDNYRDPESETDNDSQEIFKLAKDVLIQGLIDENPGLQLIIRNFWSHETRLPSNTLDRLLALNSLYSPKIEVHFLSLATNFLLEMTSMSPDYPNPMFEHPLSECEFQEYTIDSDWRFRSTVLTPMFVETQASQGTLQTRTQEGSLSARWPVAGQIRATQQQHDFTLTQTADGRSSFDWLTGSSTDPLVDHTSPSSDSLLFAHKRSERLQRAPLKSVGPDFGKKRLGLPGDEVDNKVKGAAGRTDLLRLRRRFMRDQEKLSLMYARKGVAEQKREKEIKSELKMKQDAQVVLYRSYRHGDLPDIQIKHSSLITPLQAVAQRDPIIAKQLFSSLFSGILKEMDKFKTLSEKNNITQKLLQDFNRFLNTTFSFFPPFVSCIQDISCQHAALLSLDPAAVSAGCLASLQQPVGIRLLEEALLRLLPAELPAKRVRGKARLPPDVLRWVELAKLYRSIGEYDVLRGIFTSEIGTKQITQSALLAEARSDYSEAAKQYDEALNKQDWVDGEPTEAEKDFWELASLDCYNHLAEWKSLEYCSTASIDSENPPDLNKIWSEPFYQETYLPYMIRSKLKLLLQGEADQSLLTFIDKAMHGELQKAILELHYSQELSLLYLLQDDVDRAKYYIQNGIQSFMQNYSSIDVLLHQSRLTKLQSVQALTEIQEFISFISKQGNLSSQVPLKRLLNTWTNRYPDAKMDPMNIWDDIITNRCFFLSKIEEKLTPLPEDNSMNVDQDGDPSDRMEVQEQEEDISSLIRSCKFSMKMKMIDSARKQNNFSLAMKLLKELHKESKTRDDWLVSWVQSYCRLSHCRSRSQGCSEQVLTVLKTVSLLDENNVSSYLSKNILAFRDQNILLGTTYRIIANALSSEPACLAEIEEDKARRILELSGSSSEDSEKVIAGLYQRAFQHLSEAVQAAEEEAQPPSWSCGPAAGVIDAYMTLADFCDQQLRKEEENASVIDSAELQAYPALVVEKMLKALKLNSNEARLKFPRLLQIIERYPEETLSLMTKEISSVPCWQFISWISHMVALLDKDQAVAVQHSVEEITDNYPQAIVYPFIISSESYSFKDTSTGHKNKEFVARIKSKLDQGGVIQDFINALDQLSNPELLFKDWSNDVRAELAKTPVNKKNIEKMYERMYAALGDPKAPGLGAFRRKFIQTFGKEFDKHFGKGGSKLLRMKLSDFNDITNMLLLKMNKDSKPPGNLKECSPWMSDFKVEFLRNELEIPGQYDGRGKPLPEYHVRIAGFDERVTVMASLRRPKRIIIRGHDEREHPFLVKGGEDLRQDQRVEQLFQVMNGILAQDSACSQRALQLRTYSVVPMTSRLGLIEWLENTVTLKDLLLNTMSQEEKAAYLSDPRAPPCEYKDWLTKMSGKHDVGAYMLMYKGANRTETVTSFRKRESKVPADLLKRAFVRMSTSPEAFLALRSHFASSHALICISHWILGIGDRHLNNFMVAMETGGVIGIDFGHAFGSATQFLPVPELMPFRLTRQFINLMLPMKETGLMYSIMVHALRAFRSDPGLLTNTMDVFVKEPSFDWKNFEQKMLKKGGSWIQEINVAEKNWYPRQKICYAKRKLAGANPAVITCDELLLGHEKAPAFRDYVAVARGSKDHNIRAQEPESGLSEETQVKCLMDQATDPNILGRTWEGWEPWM
Chain of RAC-beta serine/threonine-protein kinase (Homo sapiens), P31751 [S474D] (P31751 whole entry S474D): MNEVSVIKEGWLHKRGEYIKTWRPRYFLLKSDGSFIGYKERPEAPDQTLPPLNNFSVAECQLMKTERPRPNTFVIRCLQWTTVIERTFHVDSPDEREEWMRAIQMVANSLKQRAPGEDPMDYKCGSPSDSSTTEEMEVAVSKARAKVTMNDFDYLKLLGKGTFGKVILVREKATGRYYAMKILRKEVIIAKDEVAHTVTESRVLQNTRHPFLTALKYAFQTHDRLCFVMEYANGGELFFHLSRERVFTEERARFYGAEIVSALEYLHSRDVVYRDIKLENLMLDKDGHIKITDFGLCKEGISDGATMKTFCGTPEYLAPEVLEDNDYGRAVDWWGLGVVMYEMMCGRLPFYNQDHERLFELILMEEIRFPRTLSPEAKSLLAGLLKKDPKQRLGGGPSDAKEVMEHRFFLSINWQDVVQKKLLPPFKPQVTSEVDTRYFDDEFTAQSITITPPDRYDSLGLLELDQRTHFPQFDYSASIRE

For `C[C@@H](c1ccccc1)n1nnc2cnc3ccc(-c4cnc5[nH]ccc5c4)cc3c21`, the Activity in experiment [1] was 4%; in experiment [2] it was 74%; in [3] it was 80%; in experiment [4], 35%; in [5], 105%; in experiment [6], -60 to 66%. Also, the Activity in experiment [7] was determined as 67%; in experiment [8], 89%; in experiment [9] it was 58%; in experiment [10], 5%; in experiment [11], 61%; in experiment [12], 80%. Moreover, the Activity in [13] was determined as 86%; in [14], 84%; in experiment [15] it was 79%; in experiment [16], 85%; in [17], 52%; in [18], 60%. Also, the figures for the Activity in experiment [19], in experiment [20] and in [21] were 25%, 75% and 80%, respectively.

Values taken from ChEMBL document CHEMBL4334471, “Discovery of 1,8-disubstituted-[1,2,3]triazolo[4,5-c]quinoline derivatives as a new class of Hippo signaling pathway inhibitors” (Bioorg Med Chem Lett, 2019).
